In US20220105058A1, “USE OF 3-O-SULFAMATE-16,16-DIMETHYL-D-HOMOEQUILENIN TO TREAT ONCOLOGICAL DISEASES” (priority 2018, published 2022):
“Also recorded” adds a separate entry of the source. Read-outs that look alike come from different tables or passages of the source. Marks after values point to notes of the source that are not given here.

Tests used:
[1] = test system: MCF-7 human cells culture (breast adenocarcinoma); assay: proliferation of passaged MCF-7 cell culture; assay type: cell-based
Procedure: The study analysis was carried out on an passaged MCF-7 human cells culture culture (breast adenocarcinoma). Normal human dermal fibroblasts (HDF) of early passages were used as a negative control. The cells were cultivated in Carrel vials in DMEM/F12 medium (Biolot) with 1.0% of antibiotic-free fetal bovine embryonic serum (Biolot) added in the 5% CO2 atmosphere, at 37° C.
The cells were seeded on Carrel vials at 50×10^4 cells per flask. To study the proliferative activity of the cells under conditions of sulfatase inhibition, 24 hours after seeding the culture medium […], and then these tumor cell lines were incubated for various periods of time (24 to 72 hrs). The inhibitor was dissolved in DMSO. […] To exclude the cytotoxic effect of DMSO, a control sample comprising DMSO without sulfatase inhibitor was prepared. To exclude nonspecific detrimental effects of the compounds, normal human skin fibroblasts were used. Then the cells were detached with the versene-trypsin solution (Biolot), plated onto Carrel vials containing a fresh complete culture medium. The cells were counted when untreated control cells reached the maximum cell density per unit of surface area of a culture flask (monolayer), and their number was set as 100%. The proliferative activity of all of the studied cell cultures exposed to sulfatase inhibitors was determined in triplicate.

[2] = test system: Breast tumors (BT) in female FBV/N mice transgenic for HER-2/neu; assay: antitumor activity in mice with HER-2/neu breast tumors; assay type: in vivo, FVB mice transgenic for HER-2/neu; conditions: for average total volume of tumors, % changes from baseline / average volume of tumors, % changes from baseline: 28 days; for Total number of new tumors: end of experiment; for frequency of tumor stabilizations: end of observation; for antitumor efficacy compared with Tamoxifen: mouse, in vivo
From the text: The age of animals at the beginning of the study was 21-41 weeks and weight was 25-30 g.
The control groups were given the olive oil (placebo).
TGI=(Vctrl−Vexp)/Vctrl×100(%),

[3] = body weight and tolerability during the antitumor study
Procedure: The study medicament was administered i.g. using a metal atraumatic gavage (with the procedure corresponds to the oral route of administration in clinical settings). The medicament was administered in a single daily dose (20 mg/kg of body weight) and 5-fold daily dose of 100 mg/kg of body weight. Ex tempore solutions of the medicament for administration were prepared in olive oil (refined olive oil supplemented with unrefined extra virgin olive oil available under Global Village “Clasico” trademark, lot L:183351116, expiry date 26 Apr. 2020, BAIEO, Spain). The administered volume was 0.1 ml per 10 g of a mouse body weight (0.2 ml of a ready-to-use formulation for a mouse of 20 g). The medicament administration was started 24 hours after the randomization. The duration of the administration course was 27-28 days.
This dose corresponds to a human daily dose of 20 mg/kg.
The evaluation criteria included the clinical observation data, animals body weights, time of death (if applicable), tumor growth over time, pathomorphological examination data (verification of a neoplasm during autopsy, assessment of toxic effects by macroscopic presentation of changes in the internal organs).
The animals body weights were recorded before the first administration of the medicaments and then twice per week using a verified high-speed electronic laboratory balance Ohaus Scout Pro (USA) with a maximum load of 2000 g and a measurement step of 0.1 g.

[4] = test system: uterine body without horns; assay: uterine body weight (hormonal effect) on Day 28; assay type: in vivo, FVB mice transgenic for HER-2/neu; conditions: for Uterine body weight: Day 28; for uterotropic activity / hormonal effect: mouse, in vivo
Procedure: To estimate the hormonal effect of the medicament, the weight of uterine body without horns was measured on Day 28 of the observation period (Table 9).

For `CC1(C)CC(=O)[C@@]2(C)CCc3c(ccc4cc(OS(N)(=O)=O)ccc34)[C@@H]2C1` [medicament, 3-O-sulfamate-16,16-dimethyl-D-homoequilenin], the “proliferation of tumor MCF-7 cells” value [1] was “completely inhibits proliferation”, the “proliferation of tumor MCF-7 cells” value ([1]; concentration of 20 μg/ml) was “completely blocks the proliferation” and the “Average volume of new tumors at the end of observation period (M)” value ([2]; medicament 20 mg/kg) was 0.15 cm^3. The “average total volume of tumors, % changes from baseline” value ([2]; medicament 20 mg/kg) was 106%, the “average volume of tumors, % changes from baseline” value ([2]; medicament 20 mg/kg) was 103% and the “TGI (average total tumor volume)” value ([2]; medicament 20 mg/kg, Day 0) was 25%. For the same compound, the “TGI (average tumor volume)” value ([2]; medicament 20 mg/kg, Day 0) was 8%, the “average total volume of tumors in mice (M)” value ([2]; medicament 20 mg/kg, Day 0) was 1.69 cm^3 and the “average volume of tumors (M)” value ([2]; medicament 20 mg/kg, Day 0) was 0.35 cm^3. For the same compound, the “relative change of the average total volume to that of Day − 1 (M)” value (from here on “relative change”) ([2]; medicament 20 mg/kg, Day 0) was 0%, the “TGI (average total tumor volume)” value ([2]; medicament 20 mg/kg, Day 7) was 36% and the “TGI (average tumor volume)” value ([2]; medicament 20 mg/kg, Day 7) was 22%. The “average total volume of tumors in mice (M)” value ([2]; medicament 20 mg/kg, Day 7) was 1.93 cm^3, the “average volume of tumors (M)” value ([2]; medicament 20 mg/kg, Day 7) was 0.39 cm^3 and the “relative change” value ([2]; medicament 20 mg/kg, Day 7) was 19%. For the same compound, the “TGI (average total tumor volume)” value ([2]; medicament 20 mg/kg, Day 14) was 36%, the “TGI (average tumor volume)” value ([2]; medicament 20 mg/kg, Day 14) was 21% and the “average total volume of tumors in mice (M)” value ([2]; medicament 20 mg/kg, Day 14) was 2.67* cm^3. The “average volume of tumors (M)” value ([2]; medicament 20 mg/kg, Day 14) was 0.55 cm^3, the “relative change” value ([2]; medicament 20 mg/kg, Day 14) was 64^a % and the “TGI (average total tumor volume)” value ([2]; medicament 20 mg/kg, Day 21) was 38%. The “TGI (average tumor volume)” value ([2]; medicament 20 mg/kg, Day 21) was 25%, the “average total volume of tumors in mice (M)” value ([2]; medicament 20 mg/kg, Day 21) was 3.15** cm^3 and the “average volume of tumors (M)” value ([2]; medicament 20 mg/kg, Day 21) was 0.64 cm^3. For the same compound, the “relative change” value ([2]; medicament 20 mg/kg, Day 21) was 91^aa %, the “TGI (average total tumor volume)” value ([2]; medicament 20 mg/kg, Day 28) was 40% and the “TGI (average tumor volume)” value ([2]; medicament 20 mg/kg, Day 28) was 27%. The “average total volume of tumors in mice (M)” value ([2]; medicament 20 mg/kg, Day 28) was 3.48**^a cm^3, the “average volume of tumors (M)” value ([2]; medicament 20 mg/kg, Day 28) was 0.71* cm^3 and the “relative change” value ([2]; medicament 20 mg/kg, Day 28) was 107*^aa %. For the same compound, the “Total number of new tumors” value ([2]; medicament 20 mg/kg) was 23, the “frequency of tumor stabilizations” value ([2]; medicament 20 mg/kg) was 22% and the “Average volume of new tumors at the end of observation period (M)” value ([2]; medicament 100 mg/kg) was 0.12* cm^3. The “average total volume of tumors, % changes from baseline” value ([2]; medicament 100 mg/kg) was 59%, the “average volume of tumors, % changes from baseline” value ([2]; medicament 100 mg/kg) was 60% and the “TGI (average total tumor volume)” value ([2]; medicament 100 mg/kg, Day 0) was 25%. For the same compound, the “TGI (average tumor volume)” value ([2]; medicament 100 mg/kg, Day 0) was 8%, the “average total volume of tumors in mice (M)” value ([2]; medicament 100 mg/kg, Day 0) was 1.70 cm^3 and the “average volume of tumors (M)” value ([2]; medicament 100 mg/kg, Day 0) was 0.35 cm^3. The “relative change” value ([2]; medicament 100 mg/kg, Day 0) was 0%, the “TGI (average total tumor volume)” value ([2]; medicament 100 mg/kg, Day 7) was 41% and the “TGI (average tumor volume)” value ([2]; medicament 100 mg/kg, Day 7) was 26%. For the same compound, the “average total volume of tumors in mice (M)” value ([2]; medicament 100 mg/kg, Day 7) was 1.79 cm^3, the “average volume of tumors (M)” value ([2]; medicament 100 mg/kg, Day 7) was 0.37 cm^3 and the “relative change” value ([2]; medicament 100 mg/kg, Day 7) was 1^a %. The “TGI (average total tumor volume)” value ([2]; medicament 100 mg/kg, Day 14) was 45%, the “TGI (average tumor volume)” value ([2]; medicament 100 mg/kg, Day 14) was 31% and the “average total volume of tumors in mice (M)” value ([2]; medicament 100 mg/kg, Day 14) was 2.30* cm^3. For the same compound, the “average volume of tumors (M)” value ([2]; medicament 100 mg/kg, Day 14) was 0.48 cm^3, the “relative change” value ([2]; medicament 100 mg/kg, Day 14) was 38^a % and the “TGI (average total tumor volume)” value ([2]; medicament 100 mg/kg, Day 21) was 46%. For the same compound, the “TGI (average tumor volume)” value ([2]; medicament 100 mg/kg, Day 21) was 33%, the “average total volume of tumors in mice (M)” value ([2]; medicament 100 mg/kg, Day 21) was 2.75** cm^3 and the “average volume of tumors (M)” value ([2]; medicament 100 mg/kg, Day 21) was 0.57* cm^3. For the same compound, the “relative change” value ([2]; medicament 100 mg/kg, Day 21) was 75^aa %, the “TGI (average total tumor volume)” value ([2]; medicament 100 mg/kg, Day 28) was 53% and the “TGI (average tumor volume)” value ([2]; medicament 100 mg/kg, Day 28) was 42%. For the same compound, the “average total volume of tumors in mice (M)” value ([2]; medicament 100 mg/kg, Day 28) was 2.71**^a cm^3, the “average volume of tumors (M)” value ([2]; medicament 100 mg/kg, Day 28) was 0.56**^a cm^3 and the “relative change” value ([2]; medicament 100 mg/kg, Day 28) was 69**^aa %. For the same compound, the “Total number of new tumors” value ([2]; medicament 100 mg/kg) was 15, the “frequency of tumor stabilizations” value ([2]; medicament 100 mg/kg) was 27% and the “frequency of tumor stabilizations” value ([2]; medicament 100 mg/kg, listed as compound) was 27%. For the same compound, the “antitumor efficacy compared with Tamoxifen” value [2] was “statistically significantly more effective”, the “antitumor efficacy compared with Tamoxifen” value ([2]; listed as agent) was “inhibits the proliferation of tumours more effectively” and the “signs of toxic damage to internal organs at autopsy” value ([3]; end of the experiment) was “No specific signs of toxic damage to internal organs were found”. The “clinical signs of toxicity” value ([3]; mouse, in vivo) was “no clinical signs of toxicity being observed”, the Uterine body weight ([4]; medicament 20 mg/kg, All mice) was 27 ± 5 mg and the Uterine body weight ([4]; medicament 20 mg/kg, diestrus (D-7)) was 19 ± 3 mg. It also gave a Uterine body weight ([4]; medicament 20 mg/kg, estrus (E-3)) of 45 ± 7 mg, a Uterine body weight ([4]; medicament 100 mg/kg, All mice) of 26 ± 6 mg and a Uterine body weight ([4]; medicament 100 mg/kg, diestrus (D-8)) of 19 ± 4 mg. The Uterine body weight ([4]; medicament 100 mg/kg, estrus (E-2)) was 50 ± 10 mg, the “uterotropic activity / hormonal effect” value [4] was “No significant differences; also recorded: no uterotropic activity” and the “uterotropic activity / hormonal effect” value ([4]; listed as compound) was “absence of uterotropic activity”.
